Results on five molecules are retold here after US7291295B2, “Method for precipitating finely divided solid particles” (Sociedad Espanola de Carburos Metalicos, S.A., priority 2000, dated 2007).

A short description of this data set: Particle size and size distribution of precipitate by Coulter technique using light dispersion. It is filed as physicochemical. How it is done: FIGS. 8, 10 and 11 show the distribution of size of the particles using the Coulter technique using light dispersion.
The geometrical characteristics of the particles of precipitate (size and distribution of sizes) are measured by the Coulter technique that uses light dispersion with Fourier lenses. Thus, by “particle size” is meant the value of the median of the curve of distribution of particles, in % in volume, and by “distribution of sizes” is meant the value of the standard deviation from the same curve.

As for `CC(=O)Nc1ccc(O)cc1` [acetaminophen], the “average size of particles of precipitate” value is, setting by setting: (Example 1, method of the invention, ethanol-CO2, 100 bar, 42° C., 1,750 ml solution) 15 μm; (Example 2, GAS process fraction (filter 11), ethanol-CO2, 100 bar, 42° C.) 50 μm; (Example 2, method of the invention (filter 13), ethanol-CO2, 100 bar, 42° C., 1,600 ml solution) 15 μm; (Example 5, GAS process (filter 11), acetone-CO2, 100 bar, 42° C.) 50 μm.
For `CC(=O)Oc1ccccc1C(=O)O` [aspirin], the “average size of particles of precipitate” value (Example 6, method of the invention, acetone-CO2, 70 bar, 25° C., molar fraction of CO2 0.6) stood at 14 μm.
On to `C1N2CN3CN1CN(C2)C3` [methenamine], for which the “average size of particles of precipitate” value (Example 8, method of the invention, ethanol-CO2, 100 bar, 25° C., molar fraction of CO2 0.7) was found to be 8 μm.
Take `CCCCNc1ccc(NCCCC)c2c1C(=O)c1ccccc1C2=O` [solvent blue 35]: the “average size of particles of precipitate” value runs as follows: (Example 3, method of the invention, acetone-CO2, 60 bar, 25° C., 1,400 ml solution (FIG. 8)) 5 μm; (Example 4, GAS process fraction (filter 11), acetone-CO2, 60 bar, 25° C. (FIG. 10)) 70 μm; (Example 4, method of the invention (filter 13), acetone-CO2, 60 bar, 25° C., 640 ml solution (FIG. 11)) 4 μm.
`CCCCCCCCCCCCCCCCCC(=O)O` [stearic acid]: under “Example 7, method of the invention, ethyl acetate-CO2, 100 bar, 25° C., molar fraction of CO2 0.6”, the “average size of particles of precipitate” value is given as 2 μm.
